Article PMC8269693 (ACS Chemical Neuroscience, 2021)

Legend:
AD animal models = conditions: cited from earlier work
TrkB Ig1 = TrkB Ig1 (Homo sapiens, UniProt Q16620); assay: Biacore binding assay, TrkB Ig1
SH-SY5Y cells = assay: Protection from STS-induced cell death, MTT assay, TrkB-deficient SH-SY5Y cells; format: cell-based
TrkB Ig2 = TrkB Ig2 (Homo sapiens, UniProt Q16620); assay: Biacore binding assay, TrkB Ig2
GST-TrkB ECD = GST-TrkB ECD (Homo sapiens, UniProt Q16620); assay: Biacore binding assay, GST-TrkB ECD
TrkB [1] = assay: TrkB activation in SH-SY5Y cells; format: cell-based; conditions: data not shown
TrkB [2] = assay: TrkB activation in BR6 cells; format: cell-based, human; conditions: data not shown
BR6 cells = assay: Protection from STS-induced cell death, MTT assay, BR6 cells; format: cell-based, human
5xFAD mice = conditions: cited from earlier work

Sequence of GST-TrkB ECD (Q16620 32-428): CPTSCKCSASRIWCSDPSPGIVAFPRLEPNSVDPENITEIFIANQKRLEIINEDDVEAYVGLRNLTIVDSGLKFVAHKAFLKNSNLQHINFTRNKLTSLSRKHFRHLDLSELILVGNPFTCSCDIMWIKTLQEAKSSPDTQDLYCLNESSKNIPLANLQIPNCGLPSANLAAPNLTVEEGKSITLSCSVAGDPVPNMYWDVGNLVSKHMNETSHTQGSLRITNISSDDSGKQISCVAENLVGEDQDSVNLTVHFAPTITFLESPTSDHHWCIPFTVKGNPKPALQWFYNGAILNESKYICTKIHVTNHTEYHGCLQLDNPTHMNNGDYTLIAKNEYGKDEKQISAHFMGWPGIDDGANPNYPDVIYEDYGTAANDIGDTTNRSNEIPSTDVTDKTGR
Sequence of TrkB Ig1 (Q16620 182-250): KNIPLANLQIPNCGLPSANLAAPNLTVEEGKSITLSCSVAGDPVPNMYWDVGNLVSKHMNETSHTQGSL
Sequence of TrkB Ig2 (Q16620 251-340): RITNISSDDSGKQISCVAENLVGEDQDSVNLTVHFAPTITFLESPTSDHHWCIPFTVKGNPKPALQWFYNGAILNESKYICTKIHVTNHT

Structure (SMILES)	levels of Aβ40 and Aβ42 (AD animal models)	learning and memory deficits (AD animal models; different AD animal models)	association with Ig1 domain (TrkB Ig1)	protective effect via MTT assay (SH-SY5Y cells)	association with Ig2 domain (TrkB Ig2)	Kd (GST-TrkB ECD) [nM]	TrkB activation (TrkB [1])	TrkB activation (TrkB [2])	protective profile via MTT assay (BR6 cells)	Aβ deposition (5xFAD mice; chronic oral administration)	memory deficits (5xFAD mice; dose-dependent)
O=c1cc(-c2ccccc2)oc2c(O)c(O)ccc12 [7,8-DHF, 7,8-dihydroxyflavone]	reduces the levels of Aβ40 and Aβ42	rescues learning and memory deficits	none of them associated with the Ig1 or Ig2 domains	neither of them displayed a demonstrable effect	none of them associated with the Ig1 or Ig2 domains	184	barely visible	robustly provoked TrkB activation	comparable protective profiles	–	–
CNC(=O)Oc1ccc2c(=O)cc(-c3ccccc3)oc2c1OC(=O)NC [R13]	–	–	–	–	–	–	–	–	–	inhibits Aβ deposition	improves memory deficits
